Experimental data published in ChEMBL document CHEMBL6071146, “Synthesis and identification of a selective FGFR2 degrader with potent antiproliferative effects in gastric cancer” (Eur J Med Chem, 2024).
The source made the active and inactive calls. No cut-off for these calls is given here.

Tests used:
[1] = Cmax in Sprague-Dawley rat at 5 mg/kg, ip measured for 24 hrs by LC-MS/MS analysis; type: ADME, organism-based; conditions: in vivo
[2] = Toxicity in BALB/c mouse xenografted with human SNU-16 cells assessed as damage in kidney at 10 to 20 mg/kg, ip qd for 25 days by H and E staining based analysis; type: organism-based; conditions: in vivo, 600 h, dose 10-20 mg/kg, time 25 day
[3] = system: KATO III; assay: Induction of cell cycle arrest at G0/G1 phase in human KATO III cells assessed as reduction in CDK2 level at 500 to 1000 nM incubated for 24 hrs by Western blot analysis; type: functional, cell-based; conditions: dose 500-1000 nM
[4] = system: SNU-16; assay: Induction of apoptosis in human SNU-16 cells assessed as increase in cleaved caspase-3 level at 0.5 to 1 uM incubated for 24 hrs by Western blot analysis; type: functional, cell-based; conditions: dose 0.5-1 µM
[5] = Toxicity in BALB/c mouse xenografted with human SNU-16 cells assessed as damage in liver at 10 to 20 mg/kg, ip qd for 25 days by H and E staining based analysis; type: organism-based; conditions: in vivo, 600 h, dose 10-20 mg/kg, time 25 day
[6] = Volume of distribution at steady state in Sprague-Dawley rat at 2 mg/kg, iv measured for 24 hrs by LC-MS/MS analysis; type: ADME, organism-based; conditions: in vivo, read-out: Vdss
[7] = system: SNU-16; assay: Antiproliferative activity against human SNU-16 cells incubated for 72 hrs by MTT assay; conditions: SNU-16, 72 h
[8] = Toxicity in BALB/c mouse xenografted with human SNU-16 cells assessed as weight loss at 10 to 20 mg/kg, ip qd for 25 days; type: organism-based; conditions: in vivo, 600 h, dose 10-20 mg/kg, time 25 day
[9] = MRT (infinity) in Sprague-Dawley rat at 5 mg/kg, ip measured for 24 hrs by LC-MS/MS analysis; type: ADME, organism-based; conditions: in vivo
[10] = Half life in Sprague-Dawley rat at 2 mg/kg, iv measured for 24 hrs by LC-MS/MS analysis; type: ADME, organism-based; conditions: in vivo
[11] = system: KATO III; assay: Induction of cell cycle arrest at G0/G1 phase in human KATO III cells assessed as reduction in CDK4 level at 500 to 1000 nM incubated for 24 hrs by Western blot analysis; type: functional, cell-based; conditions: dose 500-1000 nM
[12] = system: KATO III; assay: Induction of cell cycle arrest at G0/G1 phase in human KATO III cells assessed as increase in p21 level at 500 to 1000 nM incubated for 24 hrs by Western blot analysis; type: functional, cell-based; conditions: dose 500-1000 nM
[13] = MRT (infinity) in Sprague-Dawley rat at 2 mg/kg, iv measured for 24 hrs by LC-MS/MS analysis; type: ADME, organism-based; conditions: in vivo
[14] = species: Homo sapiens; assay: Induction of VEGFR2 (unknown origin) degradation
[15] = AUC (0 to t) in Sprague-Dawley rat at 2 mg/kg, iv measured for 24 hrs by LC-MS/MS analysis; type: ADME, organism-based; conditions: in vivo
[16] = system: BaF3; assay: Antiproliferative activity against mouse BaF3 cells stably expressing TEL-FGFR4 incubated for 72 hrs bby CellTiter-Glo assay; conditions: BaF3, 72 h
[17] = AUC (infinity) in Sprague-Dawley rat at 2 mg/kg, iv measured for 24 hrs by LC-MS/MS analysis; type: ADME, organism-based; conditions: in vivo
[18] = cells; conditions: Homo sapiens, KATO III, 24 h, read-out: Activity
Description: Induction of apoptosis in human KATO III cells assessed as viable cells at 1000 nM incubated for 24 hrs by Annexin V-FITC/PI staining based flow cytometry (Rvb = 87.00 %)

[19] = Antiproliferative activity against human KATO III cells incubated for 72 hrs by MTT assay
[20] = Toxicity in BALB/c mouse xenografted with human SNU-16 cells assessed as obvious side effect at 10 to 20 mg/kg, ip qd for 25 days; type: organism-based; conditions: in vivo, 600 h, dose 10-20 mg/kg, time 25 day
[21] = Toxicity in BALB/c mouse xenografted with human SNU-16 cells assessed as damage in spleen at 10 to 20 mg/kg, ip qd for 25 days by H and E staining based analysis; type: organism-based; conditions: in vivo, 600 h, dose 10-20 mg/kg, time 25 day
[22] = Clearance in Sprague-Dawley rat at 2 mg/kg, iv measured for 24 hrs by LC-MS/MS analysis; type: ADME, organism-based; conditions: in vivo
[23] = Toxicity in BALB/c mouse xenografted with human SNU-16 cells assessed as drug tolerance at 10 to 20 mg/kg, ip qd for 25 days; type: organism-based; conditions: in vivo, 600 h, dose 10-20 mg/kg, time 25 day
[24] = system: BaF3; assay: Antiproliferative activity against mouse BaF3 cells stably expressing TEL-FGFR2 incubated for 72 hrs bby CellTiter-Glo assay; conditions: BaF3, 72 h
[25] = system: SNU-16; assay: Induction of cell cycle arrest at G0/G1 phase in human SNU-16 cells assessed as increase in p21 level at 500 to 1000 nM incubated for 24 hrs by Western blot analysis; type: functional, cell-based; conditions: dose 500-1000 nM
[26] = AUC (infinity) in Sprague-Dawley rat at 5 mg/kg, ip measured for 24 hrs by LC-MS/MS analysis; type: ADME, organism-based; conditions: in vivo
[27] = system: SNU-16; assay: cells; conditions: Homo sapiens, SNU-16, 24 h, read-out: Activity
Description: Induction of apoptosis in human SNU-16 cells assessed as viable cells at 500 nM incubated for 24 hrs by Annexin V-FITC/PI staining based flow cytometry (Rvb = 77.12 %)

[28] = system: SNU-16; assay: Antitumor activity against human SNU-16 cells xenografted in BALB/c mouse assessed as decrease in tumor size at 10 to 20 mg/kg, ip qd for 25 days; type: functional, organism-based; conditions: dose 10-20 mg/kg, time 25.0 day
[29] = Tmax in Sprague-Dawley rat at 5 mg/kg, ip measured for 24 hrs by LC-MS/MS analysis; type: ADME, organism-based; conditions: in vivo
[30] = system: SNU-16; assay: Antitumor activity against human SNU-16 cells xenografted in BALB/c mouse assessed as decrease in tumor weight at 10 to 20 mg/kg, ip qd for 25 days; type: functional, organism-based; conditions: dose 10-20 mg/kg, time 25.0 day
[31] = system: KATO III; assay: Induction of apoptosis in human KATO III cells assessed as increase in cleaved caspase-3 level at 0.5 to 1 uM incubated for 24 hrs by Western blot analysis; type: functional, cell-based; conditions: dose 0.5-1 µM
[32] = cells; conditions: Homo sapiens, KATO III, 24 h, read-out: Activity; remark: listed apart in the source
Description: Induction of apoptosis in human KATO III cells assessed as viable cells at 500 nM incubated for 24 hrs by Annexin V-FITC/PI staining based flow cytometry (Rvb = 87.00 %)

[33] = system: SNU-16; assay: cells; conditions: Homo sapiens, SNU-16, 24 h, read-out: Activity; remark: listed apart in the source
Description: Induction of apoptosis in human SNU-16 cells assessed as viable cells at 1000 nM incubated for 24 hrs by Annexin V-FITC/PI staining based flow cytometry (Rvb = 77.12 %)

[34] = Oral bioavailability in Sprague-Dawley rat at 5 mg/kg measured for 24 hrs by LC-MS/MS analysis; type: ADME, organism-based; conditions: in vivo
[35] = system: BaF3; assay: Antiproliferative activity against mouse BaF3 cells stably expressing TEL-FGFR1 incubated for 72 hrs bby CellTiter-Glo assay; conditions: BaF3, 72 h
[36] = system: SNU-16; assay: Antitumor activity against human SNU-16 cells xenografted in BALB/c mouse at 20 mg/kg, ip qd for 25 days relative to control; conditions: SNU-16, 600 h, read-out: TGI
[37] = system: SNU-16; assay: Antitumor activity against human SNU-16 cells xenografted in BALB/c mouse assessed as tumor growth suppression at 10 to 20 mg/kg, ip qd for 25 days; type: functional, organism-based; conditions: dose 10-20 mg/kg, time 25.0 day
[38] = system: KATO III; assay: Induction of cell cycle arrest at G0/G1 phase in human KATO III cells assessed as reduction in Cyclin D1 level at 500 to 1000 nM incubated for 24 hrs by Western blot analysis; type: functional, cell-based; conditions: dose 500-1000 nM
[39] = Toxicity in BALB/c mouse xenografted with human SNU-16 cells assessed as damage in lung at 10 to 20 mg/kg, ip qd for 25 days by H and E staining based analysis; type: organism-based; conditions: in vivo, 600 h, dose 10-20 mg/kg, time 25 day
[40] = system: KATO III; assay: Induction of cell cycle arrest at G0/G1 phase in human KATO III cells assessed as reduction in Cyclin E level at 500 to 1000 nM incubated for 24 hrs by Western blot analysis; type: functional, cell-based; conditions: dose 500-1000 nM
[41] = Apparent oral clearance in Sprague-Dawley rat at 5 mg/kg, ip measured for 24 hrs by LC-MS/MS analysis; type: ADME, organism-based; conditions: in vivo
[42] = system: BaF3; assay: Antiproliferative activity against mouse BaF3 cells stably expressing TEL-FGFR3 incubated for 72 hrs bby CellTiter-Glo assay; conditions: BaF3, 72 h
[43] = Toxicity in BALB/c mouse xenografted with human SNU-16 cells assessed as damage in heart at 10 to 20 mg/kg, ip qd for 25 days by H and E staining based analysis; type: organism-based; conditions: in vivo, 600 h, dose 10-20 mg/kg, time 25 day
[44] = AUC (0 to t) in Sprague-Dawley rat at 5 mg/kg, ip measured for 24 hrs by LC-MS/MS analysis; type: ADME, organism-based; conditions: in vivo
[45] = Half life in Sprague-Dawley rat at 5 mg/kg, ip measured for 24 hrs by LC-MS/MS analysis; type: ADME, organism-based; conditions: in vivo
[46] = Apparent volume of distribution during terminal phase in Sprague-Dawley rat at 5 mg/kg, ip measured for 24 hrs by LC-MS/MS analysis; type: ADME, organism-based; conditions: in vivo, read-out: Vz/F

## COc1cc(OC)cc(N(CCNC(C)C)c2ccc3ncc(-c4cnn(CCCCCCC(=O)NCCNc5cccc6c5C(=O)N(C5CCC(=O)NC5=O)C6=O)c4)nc3c2)c1 (stereo unspecified)
[1]
  Cmax: 302 ng/mL
[2]
  Activity: Non-Toxic
[3]
  Activity: Active
[4]
  Activity: Active
[5]
  Activity: Non-Toxic
[6]
  Vd: 7.58 L/kg
[7]
  IC50: < 0.00017 µM
[8]
  Activity: Non-Toxic
[9]
  MRT inf: 6.53 h
[10]
  half-life: 4.65 h
[11]
  Activity: Active
[12]
  Activity: Active
[13]
  MRT inf: 2.27 h
[14]
  Activity: inactive
[15]
  AUC(0-t) at 24 h: 544 ng·h/mL
[16]
  IC50: 0.332 µM
[17]
  AUC(0-inf): 570 ng·h/mL
[18]
  viability at 1 µM: 65%
[19]
  IC50: < 0.00017 µM
[20]
  Activity: Non-Toxic
[21]
  Activity: Non-Toxic
[22]
  clearance: 59.3 mL/min/kg
[23]
  Activity: Non-Toxic
[24]
  IC50: 0.0227 µM
[25]
  Activity: Active
[26]
  AUC(0-inf): 1070 ng·h/mL
[27]
  viability at 0.5 µM: 45.6%
[28]
  Activity: Active
[29]
  Tmax: 0.25 h
[30]
  Activity: Active
[31]
  Activity: Active
[32]
  viability at 0.5 µM: 66.8%
[33]
  viability at 1 µM: 42.7%
[34]
  bioavailability: 74.8%
[35]
  IC50: 0.138 µM
[36]
  inhibition in vivo at 20 mg/kg: 117%
[37]
  Activity: Active
[38]
  Activity: Active
[39]
  Activity: Non-Toxic
[40]
  Activity: Active
[41]
  CL/F: 78.2 mL/min/kg
[42]
  IC50: 0.0971 µM
[43]
  Activity: Non-Toxic
[44]
  AUC(0-t) at 24 h: 991 ng·h/mL
[45]
  half-life: 7.59 h
[46]
  Vd/F: 51.4 L/kg
